Assay [1] deals with MGC-803. As to the kind of experiment: Cell cycle arrest in human MGC-803 cells assessed as accumulation of cells at S phase at 7.5 uM measured after 24 hrs by Flowcytometry assay (reference value: 36.51%). It is filed as functional.
In assay [2] the test system is MGC-803. Description: Cell cycle arrest in human MGC-803 cells assessed as accumulation of cells at G2/M phase at 7.5 uM measured after 24 hrs by Flowcytometry assay (reference value: 13.71%). The format is functional.
The subject of assay [3] is MGC-803. Description: Induction of apoptosis in human MGC-803 cells assessed as viable cells at 2.5 uM measured after 24 hrs by AnnexinV/FITC staining based flow cytometry method (reference value: 94.8%). It is filed as functional. The following applies: read-out: Activity.
Assay [4] relates to MGC-803. As to the kind of experiment: Induction of apoptosis in human MGC-803 cells assessed as viable cells at 5 uM measured after 24 hrs by AnnexinV/FITC staining based flow cytometry method (reference value: 94.8%). The format is functional. Conditions: read-out: Activity. Background: In flow cytometry, cells or beads pass a laser one at a time.
Assay [5] deals with MGC-803. As to the kind of experiment: Induction of apoptosis in human MGC-803 cells assessed as necrotic cells at 5 uM measured after 48 hrs by AnnexinV/FITC staining based flow cytometry method (reference value: 0.2%). It is filed as functional.
Assay [6] concerns MGC-803. As to the kind of experiment: Induction of apoptosis in human MGC-803 cells assessed as late apoptotic cells at 7.5 uM measured after 48 hrs by AnnexinV/FITC staining based flow cytometry method (reference value: 0.9%). The format is functional.
The subject of assay [7] is HGC-27. As to the kind of experiment: Induction of apoptosis in human HGC-27 cells assessed as viable cells at 3 uM measured after 24 hrs by AnnexinV/FITC staining based flow cytometry method (reference value: 95.7%). The following applies: read-out: Activity. It is filed as functional.
The subject of assay [8] is HGC-27. As to the kind of experiment: Induction of apoptosis in human HGC-27 cells assessed as late apoptotic cells at 3 uM measured after 48 hrs by AnnexinV/FITC staining based flow cytometry method (reference value: 1%). It is filed as functional.
Assay [9] deals with HGC-27. Description: Induction of apoptosis in human HGC-27 cells assessed as late apoptotic cells at 6 uM measured after 48 hrs by AnnexinV/FITC staining based flow cytometry method (reference value: 1%). The format is functional.
Assay [10] deals with HGC-27. As to the kind of experiment: Induction of apoptosis in human HGC-27 cells assessed as late apoptotic cells at 9 uM measured after 48 hrs by AnnexinV/FITC staining based flow cytometry method (reference value: 1%). The format is functional.
Assay [11] has as its system HGC-27. As to the kind of experiment: Induction of apoptosis in human HGC-27 cells assessed as necrotic cells at 9 uM measured after 48 hrs by AnnexinV/FITC staining based flow cytometry method (reference value: 0.1%). The format is functional.
The test system of assay [12] is MGC-803. As to the kind of experiment: Induction of apoptosis in human MGC-803 cells assessed as reduction of mitochondrial membrane potential at 5 uM measured after 24 hrs by JC-1 staining based Flowcytometry assay (reference value: 3.8%). The format is functional. The arrangement: scale not given: the % may be the effect or the level left.
In assay [13] the test system is MGC-803. Description: Induction of apoptosis in human MGC-803 cells assessed as down-regulation of Bcl2 at 2.5 to 7.5 uM measured after 24 hrs by Western blot assay. The format is functional, cell-based. The following applies: dose 2.5-7.5 µM.
The test system of assay [14] is HGC-27. As to the kind of experiment: Antiproliferative activity against human HGC-27 cells assessed as cell survival at 7.5 uM preincubated with Z-VAD-FMK followed by compound addition and measured after 24 hrs by MTT assay. It is filed as functional, cell-based. (Tetrazolium assays rely on reduction of a dye to a coloured formazan, in cell work by metabolically active cells.)

Assay [15] has as its system MGC-803. As to the kind of experiment: Induction of apoptosis in human MGC-803 cells assessed as up-regulation of Nrf2 expression in cytoplasm at 2.5 to 7.5 uM measured after 24 hrs by Western blot assay. The format is functional, cell-based. The following applies: dose 2.5-7.5 µM. Background: A western blot detects proteins with antibodies after separation by electrophoresis.

In assay [16] the test system is HGC-27. Description: Induction of apoptosis in human HGC-27 cells assessed as upregulation of Bak at 3 to 9 uM measured after 24 hrs by Western blot assay. It is filed as functional, cell-based. The following applies: dose 3-9 µM.
Assay [17] deals with MGC-803. Description: Induction of apoptosis in human MGC-803 cells assessed as ROS levels at 2.5 uM measured after 24 hrs by DCFH-DA staining based flow cytometry assay (reference value: 3.3%). The format is functional.
In assay [18] the test system is HGC-27. Description: Induction of apoptosis in human HGC-27 cells assessed as ROS levels at 6 uM measured after 24 hrs by DCFH-DA staining based flow cytometry assay (reference value: 6.8%). The format is functional.
Assay [19] deals with HGC-27. Description: Induction of apoptosis in human HGC-27 cells assessed as upregulation of Bax at 3 to 9 uM measured after 24 hrs by Western blot assay. The format is functional, cell-based. The following applies: dose 3-9 µM.

The source made the active and inactive calls. No cut-off for these calls is given here.

The text below walks through data of ChEMBL document CHEMBL5038615, “Discovery of a cinnamyl piperidine derivative as new neddylation inhibitor for gastric cancer treatment” (Eur J Med Chem, 2021).

With `CCCCCc1ccc(NC(=O)C2CCN(C/C=C/c3ccccc3)CC2)cc1`, the Activity with MGC-803 [1] came out at 33.6%; in the assay with MGC-803 [2], 25.94%; in the assay on MGC-803 [5] it was 0.8%; in the assay with MGC-803 [6], 95.6%; with HGC-27 [8] it was 7%; with HGC-27 [9], 21.2%. Also, the Activity with HGC-27 [10] was 99.5%; in the assay with HGC-27 [11] it was 0%; with MGC-803 [12] it was 17.4%; with MGC-803 [13], “Dose-Dependent Effect”; in the assay on HGC-27 [16] it was “Dose-Dependent Effect”; in the assay on MGC-803 [17], 4%. Besides, the Activity was 14.5% with HGC-27 [18] and “Dose-Dependent Effect” in the assay with HGC-27 [19]. Also, the viability at 2.5 µM in the assay with MGC-803 [3] was 93.5%. The viability at 5 µM in the assay with MGC-803 [4] turned out to be 80.1%. Further, the viability at 3 µM with HGC-27 [7] came out at 87.5%. In addition, the outcome in the assay on HGC-27 [14] and with MGC-803 [15] was Active.
